{"source": "patent US20250064955A1", "about": "“DRUG CONJUGATES AND METHODS OF PREPARING AND USING THE SAME” (priority 2021, published 2025)", "key": {"[1]": {"system": "HCC1954 breast ductal carcinoma cells", "test": "In vitro potency, cell viability (Cell Titer Glo 2.0), HCC1954", "type": "cell-based", "conditions": "Homo sapiens, HCC1954, 120 h", "procedure": "(§1) HCC1954 breast ductal carcinoma or SK-BR-3 cells (ATCC, Manassas, VA, USA) were seeded into 384-well white-walled culture plates and allowed to adhere for 2-4 hours. Cells were then treated with test articles at least in duplicate by addition of 5-fold serially diluted test articles prepared at 2× final concentration and incubated at 37° C. for 120 hours. Cell viability following treatment was determined by Cell Titer Glo 2.0 Assay (Promega, Madison, WI, USA) and normalized to non-treated controls. Dose-response relationships were analyzed using GraphPad Prism (La Jolla, CA, USA), and IC50 values were derived from non-linear regression analyses using a 4-parameter logistic equation."}, "SK-BR-3 cells": {"system": "SK-BR-3 cells", "test": "In vitro potency, cell viability (Cell Titer Glo 2.0), SK-BR-3", "type": "cell-based", "conditions": "Homo sapiens, SK-BR-3, 120 h", "procedure": "as §1"}}, "note": "Where a SMILES comes first, the peptide text is derived from it. [ ]: non-standard residue; d: D form. The star is where a group is joined. Dolaproine = CO[C@@H]([C@@H]1CCCN1)[C@@H](C)C(=O)O; Dil = CC[C@H](C)[C@H](NC)[C@@H](CC(=O)O)OC; X1 = C[C@@H](N*)[C@@H](O)c1ccccc1; NMeV = CN[C@H](C(=O)O)C(C)C", "data": [{"compound": "CC[C@H](C)[C@@H]([C@@H](CC(=O)N1CCC[C@H]1[C@H](OC)[C@@H](C)C(=O)N[C@H](C)[C@@H](O)c1ccccc1)OC)N(C)C(=O)[C@@H](NC(=O)[C@@H](NC)C(C)C)C(C)C", "note": "[MMAE, (S)-N-((3R,4S,5S)-1-((S)-2-((1R,2R)-3-(((1S,2R)-1-hydroxy-1-phenylpropan-2-yl)amino)-1-methoxy-2-methyl-3-oxopropyl)pyrrolidin-1-yl)-3-methoxy-5-methyl-1-oxoheptan-4-yl)-N,3-dimethyl-2-((S)-3-methyl-2-(methylamino)butanamido)butanamide] (H-[NMeV]V[Dil][Dolaproine]-X1)", "values": [{"measurement": "IC50", "setting": "[1]", "value": 0.21, "unit": "nM"}, {"measurement": "IC50", "setting": "SK-BR-3 cells", "value": 0.127, "unit": "nM"}]}]}
